Measurements from the SangsterLogP compilation.

logP | Compound
1.18 | N=C(N)NN=Cc1ccccc1
2.05 | CCCCC(C)=NNC(N)=Nc1ccccc1
0.99 | NC(=Nc1ccccc1)NN=Cc1ccc2ccccc2n1
2.08 | CCCCCC/C(C)=N\N=C(N)N
2.08 | CCC/C(=N\NC(N)=Nc1ccccc1)c1ccccc1
1.96 | NC(N)=N/N=C(\c1ccccc1)c1cccs1
2.17 | CCCCCC(CCC)=NNC(=N)N
0.98 | NC(N)=N/N=C/c1cccs1
1.73 | CCCC(CCC)=NNC(=N)N
1.05 | CC(=NN=C(N)N)c1cccs1
2.18 | C/C(=N/N/C(N)=N/c1ccccc1)c1ccccc1
2.33 | CCCC(CCC)=NNC(N)=Nc1ccccc1
